17 molecules from patent US12565511B2, “SOS1 inhibitor containing phosphorus” (Chia Tai Tianqing Pharmaceutical Group Co., Ltd., priority 2020, dated 2026) can be followed below.

The EC50 is the concentration that produces a half-maximal response. Lower therefore signals higher potency in that assay.

The subject of one assay is K562 cells. Description: Assay for proliferation inhibitory activity of K562 cells. In kind it is cell-based. To be noted: Homo sapiens, 72 h, CCK-8, read-out: K562 cell proliferation inhibition IC50. As to the method: Test Example 4 Assay for Proliferation Inhibitory Activity of K562 Cells
The K562 cell line can be purchased from the American Type Culture Collection (ATCC).
The K562 cells in a good growth state were added to a centrifuge tube with the cell density adjusted to 3×10^4/mL, and seeded on a 96-well plate (100 μL/well). The cells were cultured overnight in a cell incubator, the compound was loaded using a nanoliter pipettor to allow the final compound concentration to be 10000 nM to 4.6 nM, 2 replicate wells were set and control was set.

Another assay addresses T1, SOS1cat / KRAS G12C (Homo sapiens, UniProt Q07889).
T1 sequence (Q07889 564-1049): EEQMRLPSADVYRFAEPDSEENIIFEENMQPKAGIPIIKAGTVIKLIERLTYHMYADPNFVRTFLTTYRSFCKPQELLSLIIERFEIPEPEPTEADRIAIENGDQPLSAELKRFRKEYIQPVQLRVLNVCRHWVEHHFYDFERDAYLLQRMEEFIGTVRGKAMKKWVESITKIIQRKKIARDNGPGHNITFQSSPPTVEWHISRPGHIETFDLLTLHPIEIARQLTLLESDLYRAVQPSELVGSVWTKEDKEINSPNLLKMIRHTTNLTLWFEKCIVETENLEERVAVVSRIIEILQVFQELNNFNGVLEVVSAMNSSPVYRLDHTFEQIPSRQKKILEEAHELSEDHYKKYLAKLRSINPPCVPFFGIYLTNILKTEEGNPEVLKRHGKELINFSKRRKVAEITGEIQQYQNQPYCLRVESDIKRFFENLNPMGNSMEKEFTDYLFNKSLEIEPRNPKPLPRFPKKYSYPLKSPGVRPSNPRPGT
Description: Guanine nucleotide exchange test (HTRF). It is filed as biochemical. To be noted: SOS1cat-mediated loading of EDA-GTP-DY-647P1 on His-KRAS G12C, 20° C.; read-out: Nucleotide conversion of HTRF IC50. The method, then:
Test Example 2 Guanine Nucleotide Exchange Test
This test quantitatively investigates the ability of SOS to mediate KRAS activation. KRAS G12C with a His tag was added to the system, anti-His antibody labeled with lanthanide Eu was combined with the system, then auxiliary protein SOS1cat and GTP analogue EDA-GTP-DY-647P1 with fluorophore were added thereto, the GTP analogue with fluorophore was loaded on KRAS G12C with the assistance of the auxiliary protein, and then energy resonance transfer occurred between Anti-6HS-Cryptate (FRET donor) and EDA-GTP-DY-647P1 (FRET acceptor).
However, after pretreatment with SOS1 inhibitor compounds, the ability of SOS1 to bind and mediate KRAS activation was weakened, and the ability of FRET between donor and acceptor was weakened.
Test buffer was prepared with the following components: HEPES pH 7.4: 20 mM; NaCl: 150 mM; MgCl2: 0.5 mM; DTT: 2 mM; BSA: 0.05%; and Igepal: 0.0025%.
KRAS G12C working solution, SOS1cat working solution and blank control solution were prepared with the test buffers; wherein the KRAS G12C working solution contained 100 nM His-KRAS G12C and 2 nM […]; the SOS1cat working solution contained 20 nM SOS1cat and 200 nM EDA-GTP-DY-647P1; and the blank control solution contained 100 nM EDA-GTP-DY-647P1.
The whole test procedures were completed at 20° C.
(In general: TR-FRET usually uses a lanthanide donor and a delayed reading to cut background.)

Another assay has as its target T2, KRAS-G12C/SOS1 (Homo sapiens, UniProt Q07889).
T2 sequence (Q07889 564-1049): T1 sequence (Q07889 564-1049)
Description: biochemical.

Assay [1] concerns H358 human non-small cell lung cancer cells. Description: Inhibition test of in vitro cell level phosphorylation activity (pERK). It is filed as cell-based. The settings on record: NCI-H358, ERK phosphorylation inhibition, compound 1 h. The method, then:
Test Example 1 Inhibition Test of In Vitro Cell Level Phosphorylation Activity
1.2 Test Method for In Vitro Cell Level Phosphorylation Activity
A dish of H358 human non-small cell lung cancer cells (Nanjing Cobioer Biosciences Co., Ltd.) in logarithmic growth phase and good cell condition were added to a centrifuge tube and centrifuged at 1000 rpm for 5 min in a low speed benchtop centrifuge. The supernatant was discarded, and 5 mL of a plating medium containing 5% FBS was added using a pipette for cell resuspension. The cell suspension was loaded on a cell counter for counting, and diluted with the plating medium to adjust the cell density to 1.5×10^5 cells/mL. The cells were seeded on a black clear-bottom 384-well plate at 40 μL/well using a multi-channel pipette, and cultured overnight in a cell incubator at 37° C., 5% CO2 and saturated humidity. […] The medium was discarded after 1 h, 40 μL, of 4% polyoxymethylene was added to each well, and the plate was incubated for 20 min at room temperature and washed with PBS. […] 20 μL of 5% BSA blocking buffer was added to each well, and the blocking buffer was discarded after the plate was blocked for 1 h at room temperature. 20 μL of the primary antibody mixed solution was added to each well, wherein Rabbit anti-pERK was diluted at 1:1000 (final concentration) and mouse anti-GAPDH was diluted at 1:5000 (final concentration), and the plate was incubated overnight at 4° C. and washed with PBST. 20 μL of the secondary antibody mixed solution was added to each well, wherein goat anti rabbit 800 and goat anti mouse 647 were both diluted at 1:1000 (final concentration), and the plate was incubated in the dark at room temperature for 45 min and washed with PBST.

For the molecule `Cc1nc(N[C@H](C)c2cccc(C(F)(F)F)c2F)c2cc(P3(=O)CCCC3)ncc2n1` [Example 43], the figures for the IC50 in the assay on K562 cells, on SOS1cat / KRAS G12C and against KRAS-G12C/SOS1 were 1.07 µM, 0.717 µM and 0.215 µM, respectively.
Consider `Cc1nc(N[C@H](C)c2cccc(C(F)F)c2F)c2cc(P3(=O)CCN(S(C)(=O)=O)CC3)ccc2n1` [Example 27], for which the IC50 in the assay with K562 cells is 0.469 µM; on SOS1cat / KRAS G12C, 0.542 µM; against KRAS-G12C/SOS1 it was 0.061 µM.
In assay [1], `COc1cc2nc(C)nc(N[C@H](C)c3cccc(C(F)F)c3C)c2cc1P1(=O)CCN(C(C)=O)CC1` [Example 12] gave a 50% effective concentration (EC50) of 0.103 µM.
Same read-out and setting: the same measure for `COc1cc2nc(C)nc(N[C@H](C)c3cccc(C(C)(F)F)c3F)c2cc1P1(=O)CCN(C(=O)C2CC2)CC1` [Example 17]: 0.082 µM.
As for `COc1cc2nc(C)nc(N[C@H](C)c3cc(N)cc(C(F)F)c3)c2cc1P1(=O)CCCCC1` [Example 65], the IC50 was found to be 0.433 µM with K562 cells, 0.482 µM at SOS1cat / KRAS G12C and 0.056 µM on KRAS-G12C/SOS1.
Take `Cc1nc(N[C@H](C)c2cc(N)cc(C(F)(F)F)c2C)c2cc(P3(=O)CCN(C(=O)C(C)C)CC3)ncc2n1` [Example 58]: the IC50 with K562 cells was 0.031 µM; at SOS1cat / KRAS G12C, 0.433 µM.
As for `COc1cc2nc(C)nc(N[C@H](C)c3cccc(C(C)(F)F)c3F)c2cc1P1(=O)CCN(C(C)=O)CC1` [Example 15], the concentration for a half-maximal effect (EC50) in assay [1] stood at 0.148 µM.
In the case of `Cc1nc(N[C@H](C)c2cccc(C(C)(F)F)c2F)c2cc(P3(=O)CCN(S(C)(=O)=O)CC3)ncc2n1` [Example 23], the results for the IC50 in the assay on K562 cells and at SOS1cat / KRAS G12C were 0.118 µM and 0.283 µM, respectively.
On to `Cc1nc(N[C@H](C)c2cccc(C(F)F)c2F)c2cc(P3(=O)CCN(S(=O)(=O)C4CC4)CC3)ncc2n1` [Example 21], for which the IC50 in the assay with K562 cells amounted to 0.187 µM; on SOS1cat / KRAS G12C it was 0.481 µM; at KRAS-G12C/SOS1, 0.058 µM.
In the case of `COc1cc2nc(C)nc(N[C@H](C)c3cccc(C(F)F)c3C)c2cc1P1(=O)CCN(C(=O)C2CC2)CC1` [Example 14], the EC50 in assay [1] was 0.108 µM.
Take `Cc1nc(N[C@H](C)c2cccc(C(F)F)c2F)c2cc(P3(=O)CCN(S(C)(=O)=O)CC3)ncc2n1` [Example 20]: the IC50 in the assay on K562 cells was 0.292 µM; on SOS1cat / KRAS G12C, 0.482 µM; at KRAS-G12C/SOS1 it was 0.078 µM.
For `Cc1nc(N[C@H](C)c2cccc(C(C)(F)F)c2F)c2cc(P3(=O)CCN(C(=O)C4CCC4)CC3)ncc2n1` [Example 52], the IC50 came to 0.095 µM in the assay on K562 cells and 0.455 µM on SOS1cat / KRAS G12C.
Turning to `COc1cc2nc(C)nc(N[C@H](C)c3cc(N)cc(C(F)(F)F)c3C)c2cc1P1(=O)CCN(C(C)=O)CC1` [Example 18], a half-maximal effect in assay [1] (EC50) was put at 0.071 µM.
Regarding `Cc1nc(N[C@H](C)c2cc(N)cc(C(F)(F)F)c2C)c2cc(P3(=O)CCN(C(=O)C4(F)CC4)CC3)ncc2n1` [Example 59], the figures for the IC50 with K562 cells and on SOS1cat / KRAS G12C were 0.021 µM and 0.448 µM, respectively.
Take `COC(=O)N1CCP(=O)(c2cc3c(N[C@H](C)c4cccc(C(F)F)c4F)nc(C)nc3cn2)CC1` [Example 53]: the IC50 with K562 cells is 0.093 µM; on SOS1cat / KRAS G12C, 0.504 µM.
`Cc1nc(N[C@H](C)c2cccc(C(F)(F)F)c2F)c2cc(P3(=O)CCCCC3)ncc2n1` [Example 42]: the IC50 in the assay on K562 cells is 0.562 µM; at SOS1cat / KRAS G12C, 0.572 µM; on KRAS-G12C/SOS1, 0.081 µM.
Turning to `Cc1nc(N[C@H](C)c2cccc(C(C)(F)F)c2F)c2cc(P3(=O)CCN(CC4CC4)CC3)ncc2n1` [Example 50], the IC50 in the assay on K562 cells was determined as 0.334 µM; at SOS1cat / KRAS G12C it was 0.456 µM.
